The Ki is a dissociation constant, usually derived from enzyme kinetics or from competition with a known ligand.

Consider 1 molecule from BindingDB's records for PubMed 10565829 (Loughborough University, 1999).

In one test the target is Mu-type opioid receptor (Cavia porcellus, UniProt P97266).
The target of test [1] is Kappa-type opioid receptor (Cavia porcellus, UniProt P41144).
Sequence of Kappa-type opioid receptor (P41144 whole entry): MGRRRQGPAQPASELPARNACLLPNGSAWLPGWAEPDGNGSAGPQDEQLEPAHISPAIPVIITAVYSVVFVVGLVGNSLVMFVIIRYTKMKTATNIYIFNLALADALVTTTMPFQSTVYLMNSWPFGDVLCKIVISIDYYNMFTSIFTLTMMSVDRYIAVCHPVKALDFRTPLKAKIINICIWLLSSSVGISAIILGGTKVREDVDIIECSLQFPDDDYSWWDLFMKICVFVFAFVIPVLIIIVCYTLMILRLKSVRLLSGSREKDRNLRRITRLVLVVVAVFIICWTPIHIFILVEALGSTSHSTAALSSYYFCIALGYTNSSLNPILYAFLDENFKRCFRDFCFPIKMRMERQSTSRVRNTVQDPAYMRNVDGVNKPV

Sequence of Mu-type opioid receptor (P97266 whole entry): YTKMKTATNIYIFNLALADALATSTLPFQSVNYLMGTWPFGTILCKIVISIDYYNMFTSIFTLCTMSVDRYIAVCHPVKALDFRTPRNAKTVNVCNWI

As for `CO[C@@]12CC[C@@]3(C[C@@H]1[C@@](C)(O)C(C)(C)C)[C@H]1Cc4ccc(O)c5c4[C@@]3(CCN1CC1CC1)[C@H]2O5` [BUPRENORPHINE], the inhibition constant (Ki) came to 0.57 nM on Mu-type opioid receptor and 2 nM in test [1].
